Measured values: patent publication US4554355A, “Heterocyclic compounds as antiallergic agents” (American Home Products Corporation, priority 1984, dated 1985)
Where two headings read alike, the source gives them in different places.

Tests used:
[1] = system: synthesis of 5-HETE and LTB4 by rat glycogen-elicited polymorphonuclear leukocytes; experiment: inhibition of the synthesis of 5-HETE and LTB4 by rat glycogen-elicited polymorphonuclear leukocytes; format: cell-based, rat (female Wistar); conditions: rat PMN, A23187 10 μM; for IC50: Leukocyte, 10 min preincubation
Procedure: This is especially true with respect to 5,12-diHETE, which is also denoted as LTB4 [see Ford-Hitchinson, J. Roy. Soc. Med., 74, 831 (1981)]. The assay of this Example measures the ability of the compounds of the invention to inhibit the synthesis of 5-HETE and LTB4 by rat glycogen-elicited polymorphonuclear leukocytes.
The assay is carried out as follows:
Peritoneal PMN are obtained from female Wistar rats (150-250 g) that received an i.p. injection of 6% glycogen (10 ml). After 24 hours, rats are killed by CO2 asphyxiation and peritoneal cells are harvested by peritoneal lavage using Ca^++ and Mg^++ free Hanks' balanced salt solution (HBSS). The peritoneal exudate is centrifuged at 400 g for 10 minutes. After centrifugation, the lavaged fluid is removed and the cell pellet is resuspended in HBSS containing Ca^++ and Mg^++ and 10 mM L-cysteine at a concentration of 2×10^7 cells/ml. To 1 ml portions of cell suspension, test drugs or vehicle are added and incubated at 37° C. for 10 minutes. Following this preincubation, the calcium ionophore (10 μM), A23187, is added together with 0.5 μCi[^14 C]arachidonic acid and further incubated for 10 minutes. The reaction is stopped by the addition of ice cold water (3 ml) and acidifying to pH 3.5. Lipoxygenase products are then extracted twice into diethyl ether. The pooled ether extracts are evaporated to dryness under nitrogen and the residue is redissolved in a small volume of methanol and spotted on aluminum backed pre-coated thin layer chromatographic plates. The samples are then co-chromatographed with authentic reference 5-HETE, 12-HETE and 5,12-diHETE in the solvent system--hexane:ether:acetic acid (50:50:3). After chromatography, the areas associated with 5-HETE and 5,12-diHETE standards are identified by autoradiography, cut out and quantitated by liquid scintillation.
Results are expressed as % inhibition of [^14 C]5-HETE and [^14 C]LTB4 (5,12-HETE) synthesis. [formula]
Testing compounds of the invention in this assay and using the antioxidant 3-amino-1-[m-(trifluoromethyl)phenyl]-2-pyrazoline (BW755C) as a standard, the following results are obtained.

[2] = system: LTD4 induced bronchospasm; experiment: in vivo inhibition of bronchospasm induced in guinea pigs by exogenously administered leukotriene LTD4; parameters: species or system guinea pig (male Hartley strain); conditions: guinea pig, 50 mg/kg intraduodenal, 10 minutes before induction
Procedure: The assay of this Example measures the in vivo ability of the compounds of the invention to inhibit the bronchospasm induced in guinea pigs by the exogenously administered leukotrienes C4 and/or D4. This assay is essentially a measure of the SRS-A antagonist properties of the compounds tested.
This assay is carried out as follows:
Male Hartley strain guinea pigs (350-600 g) are anesthetized with pentobarbital sodium (50 mg/kg, i.p.). The jugular vein is cannulated for injection of drugs and the carotid artery for monitoring blood pressure. The trachea is cannulated for artificial ventilation by a miniature Starling pump and for indirect measurement of respiratory volume changes as described infra. Additional pentobarbital sodium (15 mg/kg, i.v.) is administered to arrest spontaneous respiration. Submaximal bronchoconstrictor responses are established in control animals by varying the dose-levels of leukotriene. Intravenous dose-levels for LTC4 range from 1 to 2 μg/kg and for LTD4 the range is from 0.3 to 1 μg/kg. The aerosol bronchoprovocation dose for LTC4 is generated from 1.6 μM solution and for LTD4 from a 2.0 μM solution.
Test drugs are administered either intravenously, intraduodenally, by aerosol or orally at 1 or 10 minutes before induction of bronchospasm by administration of either LTC4 or LTD4 at the predetermined dose-levels. Aerosols of soluble drugs or leukotrienes are produced in-line for 10 seconds only by actuation of an ultrasonic nebulizer (Monaghan). Aerosolized drug dosage is expressed in terms of solution concentration and by a fixed aerosol exposure time (approximately 10 seconds). Control animals receive saline in place of drug.
Respiratory volume changes are determined by a calibrated piston whose travel is recorded, via a linear transducer, on a Beckman Dynograph recorder. Maximal bronchoconstrictor volume is determined by clamping off the trachea at the end of the experiment. Overflow volumes at 1, 3 and 5 minutes are obtained from the recorded charts.
The overflow volume at 1, 3 and 5 minutes is expressed as a percentage of maximal bronchoconstriction. Combined group values are used from each of these time intervals to determine the inhibitory effect of drugs. [formula] Students t-test for unpaired data is used to determine statistical significance. Dose response curves are generated and ED50 doses are interpolated from the regression lines.
Results for a compound of the invention in this assay, using LTD4 for induction of bronchospasm, is given below: […]

Row | SMILES | IC50 ([1]; [14C]5-HETE synthesis, read-out: 50% Inhibitory Concentration (IC50), 5-HETE) [µM] | IC50 ([1]; [14C]LTB4 synthesis, read-out: 50% Inhibitory Concentration (IC50), LTB4) [µM] | % Inhibition Overflow Volume at 1 min. [2] [%] | % Inhibition Overflow Volume at 3 min. [2] [%] | % Inhibition Overflow Volume at 5 min. [2] [%] | % Inhibition at 100 μm, 5-HETE ([1]; [14C]5-HETE synthesis) [%] | % Inhibition at 100 μm, LTB4 ([1]; [14C]LTB4 synthesis) [%]
1 | NC1=NN(c2cccc(C(F)(F)F)c2)CC1 [BW755C, 3-amino-1-[m-(trifluoromethyl)phenyl]-2-pyrazoline, reference compound] | 43 | 30 | – | – | – | – | –
2 | COC(=O)C1CC(=O)N(c2cccc(OCc3nc4ccccc4s3)c2)C1 (centres unmarked) [Example 1, N-[3-[(2-Benzthiazolyl)methoxy]phenyl]pyrrolidin-2-on-4-carboxylic acid, methyl ester] | – | – | 72 | 66 | 68 | 94.30 | 84.50
3 | COC(=O)C1CC(=O)N(c2cccc(OCc3nc4ccccc4n3C)c2)C1 (centres unmarked) [Example 2A, N-[3-[(1-methyl-2-benzimidazolyl)methoxy]phenyl]pyrrolidin-2-on-4-carboxylic acid, methyl ester] | – | – | 56 | 20 | 18 | 34.60 | 32.30
4 | COC(=O)C1CC(=O)N(c2cccc(OCc3nc4ccccc4o3)c2)C1 (centres unmarked) [Example 2B, N-[3-[(2-benzoxazolyl)methoxy]phenyl]pyrrolidin-2-on-4-carboxylic acid, methyl ester] | – | – | 26 | 12 | 15 | 87.20 | 82.80
